Read-outs that look alike come from different tables or passages of the source.

Results on four molecules are retold here after patent publication US20250346606A1, “CAMPTOTHECIN COMPOUND, PREPARATION METHOD THEREFOR, AND APPLICATION THEREOF” (SICHUAN KELUN-BIOTECH BIOPHARMACEUTICAL CO., LTD., priority 2021, published 2025).

What all share (type): cell-based, Human
In one experiment the test system is HCC1806 cells. As to the kind of experiment: Inhibitory effect of compounds on HCC1806 cell proliferation. Here is the method:
(1) Cell plating: First, tumor cells HCC1806 were cultured in corresponding medium, then digested with trypsin, centrifuged, resuspended, and counted, and the cells were adjusted to an appropriate concentration for plating.
(§1) Co-incubation of the compound of the present disclosure and tumor cells: after the cells adhered to the wall, the medium was removed, and the diluted bioactive molecule (the compound of the present disclosure) was added to the wells of the above plate, and incubated for 72 h.
(§2) In vitro cell viability detection: After the incubation, 50 μL of Cell Counting-Lite™ 2.0 reagent (Vazyme/Novazyme) was added to each well, shaken and mixed well in the dark, reacted for 10 minutes, and then the detection was carried out with a microplate reader (manufacturer: BMG, Model: PHERAStar-FS) for reading. The background RLU was obtained by using cell-free medium (with Cell Counting-Lite™), and the vehicle RLU was obtained by using cell-containing medium (with Cell Counting-Lite™). Cell inhibition rate=1−(sample RLU−background RLU)/(solvent RLU−background RLU)×100%. According to the four-parameter model fitting curve, the half maximal inhibitory concentration (IC50) of the compound was calculated, and the detection results were shown in Table 6.

In another experiment the test system is NCI-H358 cells. The experiment is described as follows: Inhibitory effect of compounds on NCI-H358 cell proliferation. The method, then: (1) Cell plating: First, tumor cells NCI-H358 were cultured in corresponding medium, then digested with trypsin, centrifuged, resuspended, and counted, and the cells were adjusted to an appropriate concentration for plating.
as §1
as §2, with “10.” for “6.”

For a further experiment, the system named is MDA-MB-231 cells. As to the kind of experiment: Inhibitory effect of compounds on MDA-MB-231 cell proliferation. The following applies: read-out: IC50, inhibitory activity on MDA-MB-231 cell proliferation. Here is the method: (1) Cell plating: First, tumor cells MDA-MB-231 were cultured in corresponding medium, then digested with trypsin, centrifuged, resuspended, and counted, and the cells were adjusted to an appropriate concentration for plating.
as §1
as §2, with “18.” for “6.”

The next experiment deals with SKOV-3 cells. The experiment is described as follows: Inhibitory effect of compounds on SKOV-3 cell proliferation. The following applies: read-out: IC50, inhibitory activity on SKOV-3 cell proliferation. Here is the method: (1) Cell plating: First, tumor cells SKOV-3 were cultured in corresponding medium, then digested with trypsin, centrifuged, resuspended, and counted, and the cells were adjusted to an appropriate concentration for plating.
as §1
as §2, with “8.” for “6.”

For a further experiment, the system named is NCI-N87 cells. The experiment is described as follows: Inhibitory effect of compounds on NCI-N87 cell proliferation. As to conditions: NCI-N87 human gastric cancer cells, 72 h incubation, Cell Counting-Lite 2.0; read-out: IC50, inhibitory activity on NCI-N87 cell proliferation. Put shortly: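 Adherent NCI-N87 cells were exposed to compound dilutions for 72 h. Viability measured by Cell Counting-Lite 2.0 luminescence, with inhibition calculated against vehicle and cell-free background RLU. IC50 from four-parameter fit.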

The test system of another experiment is HCC70 cells. As to the kind of experiment: Inhibitory effect of compounds on HCC70 cell proliferation. The following applies: HCC70 human breast cancer cells, 72 h incubation, Cell Counting-Lite 2.0; read-out: IC50, inhibitory activity on HCC70 cell proliferation. The method, then: (1) Cell plating: First, tumor cells HCC70 were cultured in corresponding medium, then digested with trypsin, centrifuged, resuspended, and counted, and the cells were adjusted to an appropriate concentration for plating.
as §1
as §2, with “16.” for “6.”

For a further experiment, the system named is HT29 cells. As to the kind of experiment: Inhibitory effect of compounds on HT29 cell proliferation. The following applies: read-out: IC50, inhibitory activity on HT29 cell proliferation. The method, then: (1) Cell plating: First, tumor cells HT29 were cultured in corresponding medium, then digested with trypsin, centrifuged, resuspended, and counted, and the cells were adjusted to an appropriate concentration for plating.
as §1
as §2, with “2.” for “6.”

For another experiment, the system named is Hela cells. As to the kind of experiment: Inhibitory effect of compounds on Hela cell proliferation. As to conditions: read-out: IC50, inhibitory activity on Hela cell proliferation. The method, then: (1) Cell plating: First, tumor cells Hela were cultured in corresponding medium, then digested with trypsin, centrifuged, resuspended, and counted, and the cells were adjusted to an appropriate concentration for plating.
as §1
as §2, with “14.” for “6.”

Another experiment has as its system A549 cells. As to the kind of experiment: Inhibitory effect of compounds on A549 cell proliferation. The following applies: A549 human lung cancer cells, 72 h incubation, Cell Counting-Lite 2.0; read-out: IC50, inhibitory activity on A549 cell proliferation. Here is the method:
(1) Cell plating: First, tumor cells A549 were cultured in the corresponding medium, then digested with trypsin, centrifuged and resuspended, and counted, and the cells were adjusted to an appropriate concentration for plating.
as §1
as §2, with “activity” for “viability”, “4.” for “6.”

For the next experiment, the system named is Jeko-1 cells. As to the kind of experiment: Inhibitory effect of compounds on Jeko-1 cell proliferation. The following applies: Jeko-1 human mantle cell lymphoma cells, 72 h incubation, Cell Counting-Lite 2.0; read-out: IC50, inhibitory activity on Jeko-1 cell proliferation. The method, then: (1) Cell plating: First, tumor cells Jeko-1 were cultured in corresponding medium, then digested with trypsin, centrifuged, resuspended, and counted, and the cells were adjusted to an appropriate concentration for plating.
as §1
as §2, with “20.” for “6.”

The mark [1] stands for this setting: HT-29, HT29 human colon cancer cells, 72 h incubation, Cell Counting-Lite 2.0.

Take `CC[C@@]1(O)C(=O)OCc2c1cc1n(c2=O)Cc2c-1nc1cc(F)c(C)c3c1c2[C@@](C)(N)CC3` (single isomer, unassigned) [Example 12 (5-13-A)]: the IC50 in the experiment on HCC1806 cells (HCC1806 human breast squamous carcinoma cells, 72 h incubation, Cell Counting-Lite 2.0, read-out: IC50, inhibitory activity on HCC1806 cell proliferation) came out at 0.96 nM; in the experiment on NCI-H358 cells (NCI-H358 human non-small cell lung cancer cells, 72 h incubation, Cell Counting-Lite 2.0, read-out: IC50, inhibitory activity on NCI-H358 cell proliferation), 7.01 nM; in the experiment with MDA-MB-231 cells (MDA-MB-231 human breast cancer cells, 72 h incubation, Cell Counting-Lite 2.0) it was 333 nM; with SKOV-3 cells (SK-OV-3, SKOV-3 human ovarian cancer cells, 72 h incubation, Cell Counting-Lite 2.0), 2.09 nM; with NCI-N87 cells it was 2.33 nM; with HCC70 cells, 36.6 nM. The IC50 in the experiment with HT29 cells (setting [1]) amounted to 0.88 nM.

As to `CC#C[C@H](O)C(=O)N[C@H]1CCc2c(C)c(F)cc3nc4c(c1c23)Cn1c-4cc2c(c1=O)COC(=O)[C@]2(O)CC` [Example 1 (1-1-B), (S)—N-((1S,9S)-9-ethyl-5-fluoro-9-hydroxy-4-methyl-10,13-dioxo-2,3,9,10,13,15-hexahydro-1H,12H-benzo[de]pyrano[3′,4′:6,7]indolizino[1,2-b]quinolin-1-yl)-2-hydroxypent-3-yneamide], the IC50 with HT29 cells (Homo sapiens, HT-29, 72 h) was found to be 1.54 nM; in the experiment with Hela cells (Homo sapiens, HeLa, 72 h), 3.65 nM.

On to `CC[C@@]1(O)C(=O)OCc2c1cc1n(c2=O)Cc2c-1nc1cc(Cl)c(C)c3c1c2[C@@H](NC(=O)CO)CC3` [Example 3 (2-1-A), N-((1S,9S)-5-chloro-9-ethyl-9-hydroxy-4-methyl-10,13-dioxo-2,3,9,10,13,15-hexahydro-1H,12H-benzo[de]pyrano[3′,4′:6,7]indolizino[1,2-b]quinolin-1-yl)-2-hydroxyacetamide], for which the IC50 with HCC1806 cells (Homo sapiens, HCC1806, 72 h, read-out: IC50, inhibitory activity on HCC1806 cell proliferation, HCC1806 human breast squamous carcinoma cells, 72 h incubation, Cell Counting-Lite 2.0) was 1.43 nM; with NCI-H358 cells (Homo sapiens, NCI-H358, 72 h, read-out: IC50, inhibitory activity on NCI-H358 cell proliferation, NCI-H358 human non-small cell lung cancer cells, 72 h incubation, Cell Counting-Lite 2.0), 68.6 nM; in the experiment with MDA-MB-231 cells (Homo sapiens, MDA-MB-231, 72 h), 300 nM; with SKOV-3 cells (Homo sapiens, SK-OV-3, 72 h), 7.12 nM; with HT29 cells (Homo sapiens, HT-29, 72 h), 5.03 nM; in the experiment on Hela cells (Homo sapiens, HeLa, 72 h), 17 nM.

Consider `CC[C@@]1(O)C(=O)OCc2c1cc1n(c2=O)Cc2c-1nc1cc(F)c(C)cc1c2CNC(=O)C1(O)CC1` [Example 11 (4-10), (S)—N-((4-ethyl-8-fluoro-4-hydroxy-9-methyl-3,14-dioxo-3,4,12,14-tetrahydro-1H-pyrano[3′,4′:6,7]indolizino[1,2-b]quinolin-11-yl)methyl)-1-hydroxycyclopropane-carboxamide], for which the IC50 in the experiment with A549 cells stood at 68.5 nM; with NCI-N87 cells it was 2.29 nM; in the experiment with Jeko-1 cells, 0.45 nM; with HT29 cells (setting [1]) it was 0.52 nM; with Hela cells (Hela human cervical cancer cells, 72 h incubation, Cell Counting-Lite 2.0), 3.04 nM.
